Assay results taken from PubChem BioAssay (NCI).
Several values for one entry are separate records, joined by “and”; a condition that tells them apart may be missing. Equal values may be shown once.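 These data come from cells grown in 96-well plates and exposed to compound for 48 hours at five concentrations. GI50 is the concentration that inhibits growth by half. The concentration for full growth arrest is given as TGI.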

What was measured:
Assay in all cases: NCI anticancer screen, dose series, 48 h
CAKI-1 renal = system: CAKI-1 renal
HCT-116 colon = system: HCT-116 colon
HCT-15 colon = system: HCT-15 colon
HOP-92 NSCLC = system: HOP-92 NSCLC
KM12 colon = system: KM12 colon
LOX IMVI melanoma = system: LOX IMVI melanoma
NCI/ADR-RES ovarian = system: NCI/ADR-RES ovarian
OVCAR-5 ovarian = system: OVCAR-5 ovarian
SF-539 CNS = system: SF-539 CNS
SN12C renal = system: SN12C renal

| Structure (SMILES) | GI50 (CAKI-1 renal) [µM] | TGI (CAKI-1 renal) [µM] | GI50 (HCT-116 colon) | TGI (HCT-116 colon) [µM] | GI50 (HCT-15 colon) [µM] | TGI (HCT-15 colon) [µM] | GI50 (HOP-92 NSCLC) [µM] | TGI (HOP-92 NSCLC) [µM] | GI50 (KM12 colon) [µM] | TGI (KM12 colon) [µM] | GI50 (LOX IMVI melanoma) | TGI (LOX IMVI melanoma) [µM] | GI50 (NCI/ADR-RES ovarian) [µM] | TGI (NCI/ADR-RES ovarian) [µM] | GI50 (OVCAR-5 ovarian) | TGI (OVCAR-5 ovarian) [µM] | GI50 (SF-539 CNS) [µM] | TGI (SF-539 CNS) | GI50 (SN12C renal) [µM] | TGI (SN12C renal) [µM] |
| --- | --- | --- | --- | --- | --- | --- | --- | --- | --- | --- | --- | --- | --- | --- | --- | --- | --- | --- | --- | --- |
| COc1ccc2c(c1)cn1c3ccc(O)cc3[nH]c(=O)c21 | 0.302 | 16.3 | 0.0567 µM | 1.61 | 0.111 | 2.21 | 2.53 | 18.2 | 0.329 | 5.39 | 0.072 µM | 1.96 | 0.187 | 11.8 | 2.79 µM | 21.5 | 0.175 | 1.16 µM | 0.403 | 17.9 |
| COc1ccc(/C=C/C(=O)c2cc3c(N)c(C(=O)Nc4ccccc4C)sc3nc2C)cc1 | 0.392 | > 50 | 0.53 µM | > 50 | 0.52 | > 50 | 0.6 | 32.3 | 1.07 | 4.8 | 0.768 µM | 5.21 | 0.228 | 2 | 1.39 µM | > 50 | 0.487 | 1.68 µM | 0.833 | > 50 |
| CCCCCCCCCCCCCC(=O)C(C)N (configuration not stated) | 10 | 22.6 | 5.27 µM | 18.7 | 0.917 | 4 | 5.71 | 19.2 | 3.71 | 15.5 | 1.88 µM | 3.66 | 13.7 | 29.4 | 10.6 µM | 23.8 | 6.63 | 21.6 µM | 3.71 | 13.3 |
| N#C/C(N)=C(\C#N)N=Cc1csc2ccccc12 | 43.3 | > 100 | 26.8 µM | 83.6 | 71.9 | > 100 | 24.1 | > 100 | > 100 | > 100 | 26.3 µM | 66.3 | 32.4 | > 100 | 67.1 µM | > 100 | 20.1 | 50.9 µM | 26.9 | > 100 |
| COc1ccc(Cl)cc1NC(=O)c1cccc([N+](=O)[O-])c1O |  | > 64.8 |  | 43.3 |  | > 100 |  | 16.6 |  | > 72 |  | > 84.2 |  | 64.4 |  | > 100 |  | 33 µM |  | > 75.3 |
| CS(=O)(=O)CCn1c(=O)c(Oc2ccc(F)cc2F)cc2cnc(NC3CCOCC3)nc21 | > 25 | > 25 | > 25 µM | > 25 | > 25 | > 25 | 2.64 | > 25 | > 25 | > 25 | > 25 µM | > 25 | > 25 | > 25 | > 25 µM | > 25 | > 25 | > 25 µM | > 25 | > 25 |
| O=C(CNc1ncco1)Nc1ccc(S(=O)(=O)c2ccc(NC(=O)CNc3ncco3)cc2)cc1 | 1.56 | 3.28 | 1.42 µM | 2.98 | 1.47 | 5.44 | 3.37 | 13 | 1.74 | 3.43 | 0.308 µM | 1.92 | 3.02 | 19.6 | 2.03 µM | 4.13 | 1.7 | 3.9 µM | 3.77 | 14.7 |
| COc1ccc(C(=O)COc2cccc(/C=C3\CSc4ccc(Cl)cc4C3=O)c2)cc1 | 12.4 | 25.1 | 1.94 µM | 4.3 | 1.83 | 4.36 | 1.28 | 19.8 | 2.28 | 5.57 | 1.79 µM | 3.48 | 11.4 | 29.9 | 17 µM | 34.2 | 16.2 | 30.7 µM | 8.16 | 25.7 |
| COc1cc(NCc2ccccc2O)c2ncccc2c1 | 6.02 | 34.1 | 16.6 µM | 63.4 | 7.09 | > 100 | 3.83 | 30.3 | 22.5 | > 100 | 17.1 µM | 67.3 | 23.2 | 85.3 | 80.3 µM | > 100 | 21 | > 100 µM | 34 | > 100 |
| O=C(Nc1cccc(O)c1)c1cccc(NC2=C(Cl)C(=O)N(Cc3ccccc3)C2=O)c1 | 0.318 | 0.806 | 18.1 µM | 32 | 16.2 | 30.1 | 11.7 | 29.4 | 11.4 | 25 | 11.1 µM | 23.1 | 19.7 | 37 | 12.1 µM | 28 | 3.57 | 15.6 µM | 8.26 | 22.1 |
| COC1C(O)C(C)OC(OC2CC3CCC4C(CCC5(C)C(C6=CC(=O)OC6)CCC45O)C3(O)C(OC(C)=O)C2)C1O (configuration not stated) |  | 3.43 |  | 4.75 |  | 5.41 |  | 11.6 |  | > 48.8 |  | 4.7 |  | 6.32 |  | 5.87 |  | 1.95 µM |  | 2.6 |
| O=S(=O)(O)/C(=C\c1ccccc1)c1ccccc1 (tested in a mixture with another compound) |  | > 100 |  | > 100 |  | > 100 |  | > 100 |  | > 100 |  | > 100 |  | > 100 |  | > 100 |  | > 100 µM |  | > 100 |
| COC(=O)OCc1ccc2c(c1)C(=O)c1c-2n(CCCBr)c(=O)c2cc([N+](=O)[O-])ccc12 | 35.5 | 75.4 | 81.2 µM | > 100 | > 100 | > 100 | 28.9 | 77.1 | > 100 | > 100 | 74.3 µM | > 100 | > 100 | > 100 | > 100 µM | > 100 | 56 | > 100 µM | > 100 | > 100 |
| CCOc1ccc2ccc3cccnc3c2n1 |  | > 100 |  | > 100 |  | > 100 |  | > 100 |  | > 100 |  | > 100 |  | > 100 |  | > 100 |  | > 100 µM |  | > 100 |
| CCCCCCC#CC#Cc1cccc(=O)o1 | 3.4 | 9.2 | 0.985 µM | 2.34 | 1.67 | 3.64 | 3.24 | 8.92 | 3.83 | 14.3 | 0.122 µM | 0.43 | 2.59 | 15.7 | 2.25 µM | 4.95 | 3.19 | 12 µM | 1.31 | 2.97 |
| NC(Cc1ccnnc1)C(=O)O (configuration not stated) |  | > 100 |  | > 100 |  | > 100 |  | > 100 |  | > 100 |  | > 100 |  | > 100 |  | > 100 |  | > 100 µM |  | > 100 |
| CC(O)C(O)C(O)C(/C=N\Nc1ccccc1)=N/Nc1ccccc1 (configuration not stated) |  | 11.1 |  | 30.5 |  | 27 |  | 36 |  | 21.6 |  | 18.1 |  | 40.2 |  | 27.5 |  | 28.3 µM |  | 34.5 |
| CCc1c(O)c2c(c(O)c1C(C)=O)C(=O)c1c(cc(O)c(C(=O)O)c1C(=O)O)C2=O |  | > 100 |  | > 100 |  | > 100 |  | > 100 |  | > 100 |  | > 100 |  | > 100 |  | > 100 |  | > 100 µM |  | > 100 |
| O=C(O)c1cc(Cc2ccc(O)c(C(=O)O)c2)ccc1O (tested in a mixture with another compound) | 1.36 | 3.69 | 3.67 µM | 14.2 | 3.35 | 17 | 1.21 | 6.3 | 4.39 | 19.1 | 2.99 µM | 15.7 | 6.48 | 21 | 11.5 µM | 27.1 | 11.4 | 26.6 µM | 6.84 | 20.6 |
| CC(C)(C)[Si](C)(C)OCC1C=CC(n2cnc3c(N)ncnc32)O1 (configuration not stated) |  | > 100 |  | 50.6 |  | > 100 |  | 38.1 |  | > 100 |  | > 64 |  | > 100 |  | > 100 |  | > 81.5 µM |  | > 100 |
| CN1CCN(c2ccc(NC3=C(Cl)C(=O)c4ncccc4C3=O)cc2C#N)CC1 | 1.09 | 2.31 | 1.72 µM | 3.36 | 1.64 | 3.53 | 1.82 | 3.45 | 10.8 | 25.4 | 1.51 µM | 3.19 | 4.56 | 24.3 | 2.75 µM | 7.3 | 4.44 | 15 µM | 1.55 | 3.25 |
| Cc1cc(C)cc(Nc2ccc([N+](=O)[O-])c(NCCN3CCOCC3)n2)c1 | 0.00163 | > 100 | 0.00222 µM and 0.0146 µM | > 100 | 0.000928 | > 100 |  | 24.3 | 0.000947 | > 100 | 0.0159 µM and 0.0114 µM | > 100 | 0.000646 |  | 0.0576 µM and 0.0361 µM | > 100 | 0.0016 | 0.00587 µM and 0.0564 µM | 0.0706 | > 100 |
| O=C(NNS(=O)(=O)c1ccc(F)cc1)c1cccnc1Nc1ccc(Cl)cc1Cl | 31.2 | > 100 | 30.3 µM | > 100 | 26.8 | 83.5 | 15.4 | 36.1 | 23 | 48.5 | 32.1 µM | > 100 | 39.8 | > 100 | 52.2 µM | > 100 | 26 | 73.7 µM | 17.6 | 31.7 |
| CC(=O)OC1CCC2(C)C(=CCC3C4CCC5(OC6CC(C)CN(C(C)=O)C6C5C)C(C)=C4C(=O)C32)C1 (configuration not stated) |  | 75.1 |  | 36.7 |  | 33.6 |  | 28.9 |  | 37.6 |  | 24.4 |  | 49.5 |  | 46.6 |  | 39.9 µM |  | 46.5 |
| C/C1=C/C(=O)O[C@@H]2C[C@@H](CC[C@H](C)/C=C\C=C\CC1)O[C@@](OCCc1ccccc1)([C@@H]1CSC(=O)N1)C2 | 0.0222 | 0.0811 | 0.225 µM | > 17.5 | 0.09 | > 17.5 | 0.0119 | 0.0661 | 6.19 | > 17.5 | 0.0316 µM |  | 2.95 | > 17.5 | 0.0554 µM | > 17.5 | 0.0543 | > 17.5 µM | 0.0787 | > 17.5 |
| C/C1=C\C/C=C(\C)[C@H]2CC(CC/C(C)=C/CC1)[C@](C)(C=O)O2 | 36.4 | 99.2 | 6.03 µM | > 100 | > 100 | > 100 | 39.8 | > 100 | > 100 | > 100 | 22.2 µM | 48.5 | > 100 | > 100 | > 100 µM | > 100 | > 100 | > 100 µM | > 100 | > 100 |
